We go through two compounds from article PMC6693746 (PLoS Genetics, 2019).

In assay [1] the target is T1, dopamine receptor DopEcR (Helicoverpa armigera, UniProt A0A386QW71, T113A/W160A/Y109A/Y68A).
T1 construct: DopEcR-M-GFP-His, isolated from Sf9 cells
The assay is described as follows: saturation binding with isolated mutant receptor, […] enzyme immunoassay (lower Bmax).

In the next assay the target is T2, ErGPCR-2 (Helicoverpa armigera, UniProt A0A0U1ZWU3).
T2 construct: ErGPCR-2-GFP-His, 7TM region and added signal peptide (GenBank AKA95280.1), isolated from Sf9 cells
T2 sequence (A0A0U1ZWU3 430-703 limits assumed): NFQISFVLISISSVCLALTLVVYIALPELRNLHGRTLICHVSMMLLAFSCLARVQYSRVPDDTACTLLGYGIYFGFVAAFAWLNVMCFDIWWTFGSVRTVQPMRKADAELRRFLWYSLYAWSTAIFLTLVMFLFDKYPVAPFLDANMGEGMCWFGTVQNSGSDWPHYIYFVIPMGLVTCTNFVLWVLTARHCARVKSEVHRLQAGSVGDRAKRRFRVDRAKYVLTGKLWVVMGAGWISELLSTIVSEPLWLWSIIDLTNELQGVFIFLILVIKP
The assay is described as follows: saturation binding with isolated receptor, […] enzyme immunoassay.

Assay [2] addresses T3, dopamine receptor DopEcR (Helicoverpa armigera, UniProt A0A386QW71).
T3 construct: DopEcR-GFP-His (GenBank MG596302), isolated from Sf9 cells
T3 sequence (A0A386QW71 1-343): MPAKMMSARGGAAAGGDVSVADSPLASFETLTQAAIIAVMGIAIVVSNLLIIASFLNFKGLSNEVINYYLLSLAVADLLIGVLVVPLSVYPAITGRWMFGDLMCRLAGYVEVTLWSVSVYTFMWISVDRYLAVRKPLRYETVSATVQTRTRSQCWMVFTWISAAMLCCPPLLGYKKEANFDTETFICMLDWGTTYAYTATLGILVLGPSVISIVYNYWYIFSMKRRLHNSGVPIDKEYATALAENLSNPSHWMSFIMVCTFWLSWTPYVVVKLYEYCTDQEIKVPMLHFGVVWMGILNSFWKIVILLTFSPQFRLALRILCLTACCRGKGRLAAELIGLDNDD
The assay is described as follows: saturation binding with isolated receptor, […] enzyme immunoassay; also displacement of DA (Ki […]).

Assay [3] concerns the target dopamine receptor DopEcR (Helicoverpa armigera, UniProt A0A386QW71). Put plainly: biochemical.

A word on the Kd: it is the constant that tells how readily two partners part at equilibrium. Lower therefore signals higher affinity. Regarding `CC(C)(O)CC[C@@H](O)[C@](C)(O)[C@H]1CC[C@@]2(O)C3=CC(=O)[C@@H]4C[C@@H](O)[C@@H](O)C[C@]4(C)[C@H]3CC[C@]12C` [20E, 20-hydroxyecdysone], the Kd at dopamine receptor DopEcR [1] is 20.5 ± 1.98 nM; at ErGPCR-2 it was 23.3 ± 3.3 nM; on dopamine receptor DopEcR [2], 18 ± 3 nM.

`NCCc1ccc(O)c(O)c1` [DA, dopamine]: the dissociation constant (Kd) on dopamine receptor DopEcR [3] came to 448 ± 101 nM.
